Assay results published in publication PMC12154458, “High-Throughput Screens of Repurposing Hub and DOS Chemical Libraries Reveal Compounds with Novel and Potent Inhibitory Activity Against the Essential Non-Neuronal Acetylcholinesterase of Schistosoma mansoni (SmTAChE)” (International Journal of Molecular Sciences, 2025).
pIC50: −log10 of the molar value. Like-named read-outs stand apart in the source and are kept apart here.

Key:
[1] = molecular target: T1, rSmTAChE (Schistosoma mansoni, UniProt A0A3Q0KMM5); assay: biochemical
T1 sequence (A0A3Q0KMM5 27-661 limits assumed): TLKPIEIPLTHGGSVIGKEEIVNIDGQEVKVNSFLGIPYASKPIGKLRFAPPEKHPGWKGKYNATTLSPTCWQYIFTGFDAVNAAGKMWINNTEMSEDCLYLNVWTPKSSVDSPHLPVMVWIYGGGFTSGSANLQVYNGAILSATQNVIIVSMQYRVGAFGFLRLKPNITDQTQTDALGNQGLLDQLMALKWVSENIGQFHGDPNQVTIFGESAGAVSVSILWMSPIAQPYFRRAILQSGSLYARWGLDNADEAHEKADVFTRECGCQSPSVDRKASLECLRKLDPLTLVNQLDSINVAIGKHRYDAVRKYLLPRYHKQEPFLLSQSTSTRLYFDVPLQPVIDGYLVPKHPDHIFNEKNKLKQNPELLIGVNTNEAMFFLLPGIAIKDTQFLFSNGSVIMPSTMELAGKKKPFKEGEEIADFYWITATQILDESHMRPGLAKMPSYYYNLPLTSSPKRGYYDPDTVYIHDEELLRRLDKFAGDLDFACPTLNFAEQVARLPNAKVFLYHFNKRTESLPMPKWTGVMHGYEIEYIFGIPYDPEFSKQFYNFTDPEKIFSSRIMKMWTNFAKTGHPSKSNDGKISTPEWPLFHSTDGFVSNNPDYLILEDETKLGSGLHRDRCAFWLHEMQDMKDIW

[2] = molecular target: T1, rSmTAChE; format: biochemical; settings: for pIC50: read-out: qAC50 (IC50), rSmTAChE
[3] = molecular target: recombinant human acetylcholinesterase, rHsAChE (Homo sapiens, UniProt P22303); assay: biochemical; settings: for pIC50: read-out: qAC50 (IC50), rHsAChE
recombinant human acetylcholinesterase, rHsAChE, sequence (P22303 32-614): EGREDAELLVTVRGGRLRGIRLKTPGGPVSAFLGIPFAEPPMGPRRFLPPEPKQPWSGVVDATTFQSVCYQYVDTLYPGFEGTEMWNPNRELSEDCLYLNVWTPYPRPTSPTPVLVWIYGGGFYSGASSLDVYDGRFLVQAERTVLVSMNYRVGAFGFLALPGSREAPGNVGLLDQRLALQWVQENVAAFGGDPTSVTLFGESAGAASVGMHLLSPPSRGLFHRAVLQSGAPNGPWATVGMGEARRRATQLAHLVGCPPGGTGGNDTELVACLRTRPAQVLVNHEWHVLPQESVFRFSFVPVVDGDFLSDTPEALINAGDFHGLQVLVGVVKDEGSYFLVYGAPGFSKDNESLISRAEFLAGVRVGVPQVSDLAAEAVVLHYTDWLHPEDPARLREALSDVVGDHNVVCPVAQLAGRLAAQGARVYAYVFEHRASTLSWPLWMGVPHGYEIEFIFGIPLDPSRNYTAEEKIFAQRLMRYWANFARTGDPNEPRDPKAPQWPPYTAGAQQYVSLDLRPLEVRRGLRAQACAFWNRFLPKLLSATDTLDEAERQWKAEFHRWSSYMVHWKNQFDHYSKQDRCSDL
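Throughout, for Inhibition (%) (Average): mostly 20 µM final but a few compounds at 5 or 10 µM.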
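Throughout, for Inhibition (%) Replicate A: mostly 20 µM final but a few compounds at 5 or 10 µM.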
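Throughout, for Inhibition (%) Replicate B: mostly 20 µM final but a few compounds at 5 or 10 µM.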

SMILES | Inhibition (%) (Average) [1] | Inhibition (%) Replicate A [1] [%] | Inhibition (%) Replicate B [1] [%] | rSmTAChE Data Mode [2] | rHsAChE Data Mode [3] | inhibition at 20 µM ([1]; read-out: rSmTAChE HTS Inhibition (Ave, %)) [%] | Data Mode (curve class), rSmTAChE [2] | SI (Sm/Hs) [3] | IC50 ([3]; IC50 (µM) rHsAChE) [µM] | Data Mode (curve class), rHsAChE ([3]; dose response analysis of Drug Repurposing Hub hits against rHsAChE) | Data Mode (curve class), rHsAChE [3] | rSmTAChE HTS Inhibition (Ave, %) ([1]; 20 µM) [%] | IC50 ([2]; read-out: IC50 (µM) rSmTAChE) [µM] | IC50 ([3]; read-out: IC50 (µM) rHsAChE) [µM] | pIC50 [2] | pIC50 [3]
C[C@H](CO)N1C[C@H](C)[C@H](CN(C)S(=O)(=O)c2ccc(F)cc2)Oc2c(NC(=O)Nc3cccc4ccccc34)cccc2C1=O [BRD-K73245004-001-02-0] | 68.21 | 69.56 | 66.86 | decreasing (weakly active) | inactive | – | – | – | – | – | – | – | – | – | – | –
COc1ccc(C#Cc2ccc3c(c2)O[C@H](CN(C)S(=O)(=O)c2ccccc2F)[C@@H](C)CN([C@@H](C)CO)S3(=O)=O)cc1 [BRD-K14241686-001-01-8] | 69.92 | 70.53 | 69.31 | decreasing (weakly active) | inactive | – | – | – | – | – | – | – | – | – | – | –
O=C(C[C@@H]1C[C@@H]2c3cc(NC(=O)NC4CCCC4)ccc3O[C@@H]2[C@@H](CO)O1)NCc1ccccc1F [BRD-K71334452-001-01-3] | 89.18 | 90.25 | 88.11 | inactive | inactive | – | – | – | – | – | – | – | – | – | – | –
CCCCCCCCCCCCCCCC[N+](C)(C)CCN(Cc1ccc(OC)cc1)c1ncccn1 [Thonzonium bromide, reference compound] | – | – | – | – | – | 67 | decreasing | 2.92 | 0.38 | decreasing | – | – | – | – | – | –
CC(C)(C)c1ccc(CN2CCN(C(c3ccccc3)c3ccc(Cl)cc3)CC2)cc1 (stereo not shown) [BRD-A91444184-300-01-9] | 84.37 | 84.75 | 83.99 | – | – | – | inactive | – | – | – | inactive | – | – | – | – | –
CCCCCCCC/C=C\CCCCCCCC(=O)NCCc1ccc(O)c(O)c1 [OLDA, reference compound] | – | 93.41 | 95.51 | – | – | – | decreasing | 2.67 | – | – | decreasing (weakly active) | 94.46 | 36.1 | > 13.5 | – | –
O=C(O)C1(C(=O)O)CCC1.[NH2-].[NH2-].[Pt+2] [BRD-K90947825-001-02-7] | 69.15 | 70.08 | 68.22 | – | – | – | decreasing | – | – | – | decreasing (weakly active) | – | – | – | 4.45 | < 4.42
O=C(C[C@@H]1C=C[C@@H](NC(=O)c2ccncc2)[C@H](CO)O1)Nc1ccc(-c2ccccc2)cc1 [BRD-K45095313-001-01-2] | 61.11 | 60.65 | 61.57 | inactive | inactive | – | – | – | – | – | – | – | – | – | – | –
CCCCc1oc2ccc(NS(C)(=O)=O)cc2c1C(=O)c1ccc(OCCCN(CCCC)CCCC)cc1 [BRD-K05524748-003-04-4] | 75.77 | 74.52 | 77.02 | – | – | – | decreasing (weakly active) | – | – | – | decreasing (weakly active) | – | – | – | < 4.42 | < 4.42
